The values that follow come from US8222210B2 (priority 2005, dated 2012).

The subject of experiment [1] is NK1 receptor. As to the kind of experiment: rabbit iris sphincter smooth muscle contraction. Type of experiment: cell-based, New Zealand White rabbits. As to conditions: for biological activity relative to SP: rabbit iris sphincter muscle contraction. An excerpt:
The biological assay chosen for this study was smooth muscle contraction with the rabbit iris sphincter. […] The conformational investigations involved ^1H-NMR analyses of a set of β-MeF-containing SP analogs, and a computational study of the effects that the introduction of a β-methyl group in the Phe^7 and/or Phe^8 residues has upon an energy minimized structure of the peptide, using the helical structure of SP derived by Young et al. (1994) as a starting point for the calculations.
New Zealand White rabbits were sacrificed by an i.v. overdose of sodium pentobarbital. The eyes were then enucleated and the iris/ciliary body was isolated. Central regions of the iris sphincter muscle was then isolated and the tissue bisected, producing two iris sphincter muscle preparations. The muscle strips were connected to a Grass force-displacement transducer with an initial loading force of 100 mg placed on the muscle. The tissue was then allowed to equilibrate for 60 minutes. Contractions were recorded by a Grass 7 Physiograph. Tissues were bathed at 37° C. in a 50 ml modified Ringer's solution (90 mM NaCl, 3.6 mM KCl, 20 mM HEPES (sodium salt), 0.6 mM MgCl, 7.5 mM Na2SO4, 1.4 mM Ca-gluconate, 20 mM NaHCO3, 0.6 mM MgSO4, 0.6 mM K2HPO4 and 26 mM glucose). The Ringer's solution was gassed with 95% air/5% CO2 (pH 7.4). […] To block potential proteolytic effects the following proteolysis inhibitors were added: 1 μM thiorphan, 1 μM phosphoramidon, 1 μM captopril, 3 μg/ml leupeptin, and 3 μg/ml chymostatin.
To evaluate the viability of each muscle preparation, maximum contraction was determined by a 10^−5 M dose of carbachol at the beginning and end of each experiment. Following the initial carbachol dose, tissues were washed by three exchanges of Ringer's solutions. Previous studies have shown that this is sufficient to remove carbachol from these solutions and to return the resting tension to normal values. Each peptide was then evaluated for its ability to induce sphincter muscle contraction, and dose-response curves (from 2×10^−11 to 7×10^−7 M) were determined. A minimum of four determinations were performed for each experimental condition. The dose response curves were fit by means of a nonlinear regression analysis program (Sigma Plot®, Jandel Scientific).
Therefore, since the binding of SP to the NK1 and NK3 receptors in the rabbit iris differs by a factor of over 20, it is reasonable to assume that the contraction of the rabbit iris sphincter by βMeF-containing SP analogs primarily reflect the activation of the NK1 receptor.

In experiment [2] the test system is full thickness skin punch wounds. As to the kind of experiment: full thickness skin punch wound healing in a rat model (topical, AQUAPHOR). To be noted: for percentage decrease of the wound area versus control wounds (paired T-test): SP p<0.025, selenocystamine at the 0.05 level; for % decrease in wound size (wound area day 6 compared with day 0): rat punch wound, topical once a day, SP 0.05%, selenocystamine 10 ug Se/ml. Format: in vivo, Sprague-Dawley rats. The method, then: In addition, selenocystamine was tested as a potential wound treatment at the same time.
Twenty-one male Sprague-Dawley rats weighing between 300-350 g were used in this study. The rats were housed in the temperature controlled vivarium at Texas Tech Health Science Center with a 12-hour alternating light cycle, and were provided water and rat chow ad libitum. Animals were allowed several days of adjustment upon arrival before the surgery to get rehydrated and familiar with the environment. The study protocol was approved by the Texas Tech University Health Sciences Center Animal Care and Use Committee which assured that the animals received humane care.
On the day of the surgery (day 0), the rats were weighed and anesthetized with 1 ml/kg intraperitoneal (IP) injection of the solution made up of 3 parts XYLAZINE® and 7 parts of KETASET®. The animals' backs and necks were shaved and prepared aseptically. Lack of response to tail pinch and absence of a righting reflex were used as indications that anesthesia was adequate. Supplemental anesthetic was administered IP as necessary to maintain an adequate anesthesia.
A 7 mm-diameter punch (George Tiemann & Co.) was used to introduce the punch wound. The procedure was to fold the skin along the sagittal axis and put it down left or right side (rotate animal by animal) against a hard surface, then to thrust the punch through the two layers of skin. In this way, two identical punch wounds were obtained. Four wounds were introduced on each animal. The four wounds were arranged in two columns parallel to the sagittal axis and two rows parallel to the transverse axis.
After the wound procedure, three different treatments were assigned to the wounds. […] The two under were assigned selenocystamine treatment. For the control wound, a drop of normal saline was applied followed by a layer of AQUAPHOR™ to cover the wound. For the SP wound, a drop of 0.05% (0.5 mg/ml) SP water solution was applied followed by a layer of 0.05% (0.5 mg/g) SP-AQUAPHOR™ to cover the wound. For the selenocystamine wounds, a drop of selenocystamine water solution (10 ug Se/ml) was applied to each wound followed by a layer of selenocystamine-AQUAPHOR™ ([…]) to cover the wound. Then gauze and tape were applied to secure the wound. The animals were held under warming lights and observed until they were fully recovered from the anesthesia and then were returned to the vivarium. All the treatment agents and placebo were stored in a refrigerator. Dressing changes and treatments were performed once a day until the animals were sacrificed on day 6. The assignments and dosage of the treatments were as described above.
Following the surgery, the wounds were measured in two dimensions: sagittal and transverse. Photographs were taken using a PENTAX® ESPIO 928 camera and Kodak® ISO 200 color film. After the animals were sacrificed on day 6, the eschars covering the wounds were removed. Then the wounds were again measured in two dimensions, and photographs were taken.
The animals were sacrificed on day 6 after the surgery by euthanasia with […]® (Sodium Pentobarbital, 7.9% isopropanol, euthanasia solution). The entire wound plus a 1 mm margin of normal skin from each of the test and control wound sites on each animal was excised and preserved in buffered formalin.
The product obtained by multiplying the two measurements of each wound was referred to as the area of the wound. The percentage of the decrease of the wound area on day 6 compared with day 0 was used to evaluate the rate of healing. Since the exact time of wound healing was difficult to determine, day 6 was chosen.
Mean and standard deviations were determined on the difference of the percentage of the wound area decrease between each treatment and the control. Significant differences between treatments and the control were determined by paired T-test to see if the percentage of the decrease in wound area was greater for the treated wounds than for the control wound. […]

Experiment [3] relates to cellular growth. Nature of the experiment: cellular growth promoting activity (description). Format: cell-based.
For experiment [4], the target named is NK1 receptor (Homo sapiens, UniProt P25103). To be noted: cited from earlier work.
Experiment [5] relates to full thickness wound. As to the kind of experiment: full thickness 7 mm punch wound in the back of rats, hyaluronic acid vehicle (FIG. 10). Type of experiment: in vivo. To be noted: after 6 days, 16 rats, both wounds received hyaluronic acid vehicle. An excerpt: FIG. 10 represents the percent healing after 6 days for a full thickness wound in the back of 16 different rats. The initial wound size was a 7 mm punch wound. Each rat received two wounds, a control (no SP) and an SP treated wound. Both wounds received a hyaluronic acid vehicle.
Supplemental growth factors have the ability to accelerate wound healing in a variety of experimental animal models (EE). This has even led to clinical trials. However, the human studies have not been as successful as the animal models. Due to the complexity of the interaction of different growth factors, it is likely that the right combination of different growth factors has not been explored.

Experiment [6] has as its system NK1 and NK3 receptors. To be noted: rabbit iris; cited from earlier work.

NK1 receptor (Homo sapiens, UniProt P25103), sequence (P25103 whole entry, species assumed): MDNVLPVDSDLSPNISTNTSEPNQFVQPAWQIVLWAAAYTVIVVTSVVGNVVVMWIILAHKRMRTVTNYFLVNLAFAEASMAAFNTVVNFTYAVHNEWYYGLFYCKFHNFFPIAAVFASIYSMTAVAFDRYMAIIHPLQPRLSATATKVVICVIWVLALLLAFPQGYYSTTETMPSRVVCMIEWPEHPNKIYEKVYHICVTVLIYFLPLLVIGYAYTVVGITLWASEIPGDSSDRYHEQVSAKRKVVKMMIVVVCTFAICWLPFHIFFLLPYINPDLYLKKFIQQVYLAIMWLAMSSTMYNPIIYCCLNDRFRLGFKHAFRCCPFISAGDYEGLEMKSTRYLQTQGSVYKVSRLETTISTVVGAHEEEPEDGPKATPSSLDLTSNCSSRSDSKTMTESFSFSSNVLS

On to “7S-(βMeF)SP: Substance P analog with S-β-methylphenylalanine at position 7”, for which the “biological activity relative to SP” value in experiment [1] is listed as “slightly more active than SP”.

Turning to “8R-(βMeF)SP: Substance P analog with R-β-methylphenylalanine at position 8”, the “biological activity relative to SP” value in experiment [1] is “the most active SP analog”; in experiment [1] (listed as R-β-MeF into position 8 of SP), “four-fold enhancement”.

In the case of “7R-(βMeF)SP: Substance P analog with R-β-methylphenylalanine at position 7”, the “biological activity relative to SP” value in experiment [1] is “equipotent to SP”.

Consider “7R,8S-(βMeF)2SP: Substance P analog with R-β-methylphenylalanine at position 7 and S- at position 8”, for which the “biological activity relative to SP” value in experiment [1] is on record as “most active disubstituted SP analogs”; in experiment [1] (listed as 7R,8S-(β-MeF)2SP), “enhance the activity”.

With “7S,8R-(βMeF)2SP: Substance P analog with S-β-methylphenylalanine at position 7 and R- at position 8”, the “biological activity relative to SP” value in experiment [1] is reported as “equipotent (to SP)”; in experiment [1] (listed as 7S,8R-(β-MeF)2SP), “do not significantly alter the activity”.

On to `NCC[Se][Se]CCN` [selenocystamine, reference compound], for which, in experiment [2] (day 6), the “percentage decrease of the wound area versus control wounds (paired T-test)” value is “not significantly higher than the control” and the “% decrease in wound size (wound area day 6 compared with day 0)” value is on record as 31.8±18.3%. Also, the “wound enlargement (one wound of the group)” value in experiment [2] (six day period) turned out to be 2.9%.

Turning to “SEQ ID NO:9: substitution peptide where norleucine has been substituted for the C-terminus methionine in Substance P (RPKPQQFFGLX; (11)..(11) Norleucine; listed as Homo sapiens)”, in experiment [3], the “cellular growth promoting activity” value is recorded as “enhanced activity under at least some treatment conditions”.

For “QFFGLM (SEQ ID NO:8) (listed as Homo sapiens) [SP6-11, reference compound]”, in experiment [3], the “cellular growth promoting activity” value was “active in promoting cellular growth”. The “activity as % of that found for the whole SP molecule” value in experiment [4] is recorded as 50-90%.

“7S,8S-(βMeF)2SP: Substance P analog with S-β-methylphenylalanine at positions 7 and 8”: the “biological activity relative to SP” value is recorded as “most active disubstituted SP analogs” in experiment [1] and “enhance the activity” in experiment [1] (listed as 7S,8S-(β-MeF)2SP).

For “8S-(βMeF)SP: Substance P analog with S-β-methylphenylalanine at position 8”, the “biological activity relative to SP” value in experiment [1] is on record as “the least active of the monosubstituted analogs”; in experiment [1] (listed as S-β-MeF into position 8 of SP) it was “ten-fold reduction”.

As for RPKPQQFFGLM (SEQ ID NO:1) [SP], in experiment [2] (day 6), the “percentage decrease of the wound area versus control wounds (paired T-test)” value is given as “significantly higher than that of the control wounds” and the “% decrease in wound size (wound area day 6 compared with day 0)” value is listed as 41.6±15.0%. The “wound with the greatest decrease in size” value in experiment [2] (single wound of the treatment group, day 6) is listed as 66.7%. Further, the “control wounds showing more percent healing than the SP wound on the same rat” value in experiment [5] is recorded as 4 out of 16. Moreover, in experiment [1] (rabbit iris sphincter muscle), the “doses producing a rapid increase in the force of contraction” value was “greater than 10^−10 M” and the maximum effective dose is 10^−7 M. Besides, the “factor by which binding to NK1 and NK3 receptors differs” value in experiment [6] is reported as “over 20”.

“7R,8R-(βMeF)2SP: Substance P analog with R-β-methylphenylalanine at positions 7 and 8”: the “biological activity relative to SP” value is listed as “the least active analog” in experiment [1] and “diminish the biological activity by a factor of ten” in experiment [1] (listed as 7R,8R-(β-MeF)2SP).
